Data from PubChem BioAssay AID1963846 (Molecular Pharmacology Branch, DTP, NCI, 2024).

Tested on: 454973-116-R2-J3-PDC complex spheroid viability
Assay: Anticancer human tumor 454973-116-R2-J3-PDC patient-derived pancreatic carcinoma cell line growth inhibition [POLQ]
Conditions: for IC50: curve of first compound; for viability, T/C: stronger effect = lower value
Method in brief: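 Growth inhibition in 3D: complex spheroids (tumor PDC, HUVEC, MSC) treated with POLQ inhibitor combinations; where Cmax unknown, highest tested concentration 10 microM, except SN-38 at 1 microM.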

[1] = second compound 0.0316 µM, first compound 0.0316 µM
[2] = second compound 0.0316 µM, first compound 0.1 µM
[3] = second compound 0.0316 µM, first compound 0.316 µM
[4] = second compound 0.0316 µM, first compound 1 µM
[5] = second compound 0.0316 µM, first compound 3.16 µM
[6] = second compound 0.0316 µM, first compound 10 µM
[7] = second compound 0.1 µM, first compound 0.0316 µM
[8] = second compound 0.1 µM, first compound 0.1 µM
[9] = second compound 0.1 µM, first compound 0.316 µM
[10] = second compound 0.1 µM, first compound 1 µM
[11] = second compound 0.1 µM, first compound 3.16 µM
[12] = second compound 0.1 µM, first compound 10 µM
[13] = second compound 0.316 µM, first compound 0.0316 µM
[14] = second compound 0.316 µM, first compound 0.1 µM
[15] = second compound 0.316 µM, first compound 0.316 µM
[16] = second compound 0.316 µM, first compound 1 µM
[17] = second compound 0.316 µM, first compound 3.16 µM
[18] = second compound 0.316 µM, first compound 10 µM
[19] = second compound 1 µM, first compound 0.0316 µM
[20] = second compound 1 µM, first compound 0.1 µM
[21] = second compound 1 µM, first compound 0.316 µM
[22] = second compound 1 µM, first compound 1 µM
[23] = second compound 1 µM, first compound 3.16 µM
[24] = second compound 1 µM, first compound 10 µM
[25] = second compound 3.16 µM, first compound 0.0316 µM
[26] = second compound 3.16 µM, first compound 0.1 µM
[27] = second compound 3.16 µM, first compound 0.316 µM
[28] = second compound 3.16 µM, first compound 1 µM
[29] = second compound 3.16 µM, first compound 3.16 µM
[30] = second compound 3.16 µM, first compound 10 µM
[31] = second compound 10 µM, first compound 0.0316 µM
[32] = second compound 10 µM, first compound 0.1 µM
[33] = second compound 10 µM, first compound 0.316 µM
[34] = second compound 10 µM, first compound 1 µM
[35] = second compound 10 µM, first compound 3.16 µM
[36] = second compound 10 µM, first compound 10 µM
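Note: spheroids exposed to drugs for seven days before measurement.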
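Throughout, for viability, T/C: percent viability relative to DMSO vehicle control wells taken as 100%.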

`O=C(c1cc(Cc2n[nH]c(=O)c3ccccc23)ccc1F)N1CCN(C(=O)C2CC2)CC1` + Cc1cccc(N(C)C(=O)C2C(O)CCN2c2nc(C)cc(C(F)(F)F)c2C#N)c1 was tested, and the IC50 (second compound 0.0316 µM) was > 10 µM, the IC50 (second compound 0.1 µM) was > 10 µM and the IC50 (second compound 0.316 µM) was > 10 µM. The IC50 (second compound 1 µM) was > 10 µM, the IC50 (second compound 3.16 µM) was > 10 µM and the IC50 (second compound 10 µM) was > 10 µM. The viability, T/C [1] was 99.8%, the viability, T/C [2] was 107% and the viability, T/C [3] was 95.3%. For the same molecule, the viability, T/C [4] was 103%, the viability, T/C [5] was 98% and the viability, T/C [6] was 61.4%. For the same molecule, the viability, T/C [7] was 94.7%, the viability, T/C [8] was 103% and the viability, T/C [9] was 103%. For the same molecule, the viability, T/C [10] was 99.3%, the viability, T/C [11] was 91.4% and the viability, T/C [12] was 64.8%. The viability, T/C [13] was 99.1%, the viability, T/C [14] was 110% and the viability, T/C [15] was 106%. The viability, T/C [16] was 106%, the viability, T/C [17] was 94.5% and the viability, T/C [18] was 61%. The viability, T/C [19] was 105%, the viability, T/C [20] was 96.8% and the viability, T/C [21] was 109%. The viability, T/C [22] was 102%, the viability, T/C [23] was 91.1% and the viability, T/C [24] was 62%. The viability, T/C [25] was 108%, the viability, T/C [26] was 98.5% and the viability, T/C [27] was 104%. The viability, T/C [28] was 96.2%, the viability, T/C [29] was 96.3% and the viability, T/C [30] was 62.6%. The viability, T/C [31] was 108%, the viability, T/C [32] was 105% and the viability, T/C [33] was 102%. For the same molecule, the viability, T/C [34] was 98.4%, the viability, T/C [35] was 92% and the viability, T/C [36] was 57.7%.
`CC1COCCN1c1cc(-c2ccnn2C)c2ccnc(-c3ccn[nH]3)c2n1` (stereo unspecified) + Cc1cccc(N(C)C(=O)C2C(O)CCN2c2nc(C)cc(C(F)(F)F)c2C#N)c1 was tested, and the IC50 (second compound 0.0316 µM) was 0.207 µM, the IC50 (second compound 0.1 µM) was 0.202 µM and the IC50 (second compound 0.316 µM) was 0.198 µM. For the same molecule, the IC50 (second compound 1 µM) was 0.195 µM, the IC50 (second compound 3.16 µM) was 0.192 µM and the IC50 (second compound 10 µM) was 0.181 µM. It also gave a viability, T/C [1] of 95.3%, a viability, T/C [2] of 73.4% and a viability, T/C [3] of 37%. For the same molecule, the viability, T/C [4] was 21.7%, the viability, T/C [5] was 22.3% and the viability, T/C [6] was 25.4%. The viability, T/C [7] was 92.6%, the viability, T/C [8] was 74.4% and the viability, T/C [9] was 35%. The viability, T/C [10] was 20.8%, the viability, T/C [11] was 21.3% and the viability, T/C [12] was 27.8%. It also gave a viability, T/C [13] of 97.2%, a viability, T/C [14] of 73.3% and a viability, T/C [15] of 34.5%. It also gave a viability, T/C [16] of 20%, a viability, T/C [17] of 20.1% and a viability, T/C [18] of 25%. The viability, T/C [19] was 105%, the viability, T/C [20] was 71.7% and the viability, T/C [21] was 35.3%. It also gave a viability, T/C [22] of 21.3%, a viability, T/C [23] of 22% and a viability, T/C [24] of 25.4%. The viability, T/C [25] was 113%, the viability, T/C [26] was 71.8% and the viability, T/C [27] was 34.1%. For the same molecule, the viability, T/C [28] was 21.7%, the viability, T/C [29] was 21.8% and the viability, T/C [30] was 26.4%. For the same molecule, the viability, T/C [31] was 97.9%, the viability, T/C [32] was 67.7% and the viability, T/C [33] was 34.2%. For the same molecule, the viability, T/C [34] was 19.5%, the viability, T/C [35] was 24.4% and the viability, T/C [36] was 23.1%.
`COc1cccc(OCCCN)c1-c1cc(Nc2cnc(C#N)cn2)n[nH]1` + Nc1ccc(C#CCN(C(=O)Cc2ncc(C(F)(F)F)cc2C(F)(F)F)c2ccc(F)cc2)nn1 gave an IC50 (second compound 0.0316 µM) of 0.0156 µM, an IC50 (second compound 0.1 µM) of 0.0136 µM and an IC50 (second compound 0.316 µM) of 0.0143 µM. For the same molecule, the IC50 (second compound 1 µM) was 0.0139 µM, the IC50 (second compound 3.16 µM) was 0.0137 µM and the IC50 (second compound 10 µM) was 0.0116 µM. It also gave a viability, T/C (second compound 0.0316 µM, first compound 0.00316 µM) of 100%, a viability, T/C (second compound 0.0316 µM, first compound 0.01 µM) of 76.6% and a viability, T/C [1] of 7.44%. It also gave a viability, T/C [2] of 5.67%, a viability, T/C [3] of 5.56% and a viability, T/C [4] of 4.28%. The viability, T/C (second compound 0.1 µM, first compound 0.00316 µM) was 101%, the viability, T/C (second compound 0.1 µM, first compound 0.01 µM) was 63.5% and the viability, T/C [7] was 12.7%. For the same molecule, the viability, T/C [8] was 6.65%, the viability, T/C [9] was 5.32% and the viability, T/C [10] was 4.22%. For the same molecule, the viability, T/C (second compound 0.316 µM, first compound 0.00316 µM) was 110%, the viability, T/C (second compound 0.316 µM, first compound 0.01 µM) was 67.2% and the viability, T/C [13] was 11.2%. It also gave a viability, T/C [14] of 7.21%, a viability, T/C [15] of 5.08% and a viability, T/C [16] of 4.5%. It also gave a viability, T/C (second compound 1 µM, first compound 0.00316 µM) of 99.7%, a viability, T/C (second compound 1 µM, first compound 0.01 µM) of 67.3% and a viability, T/C [19] of 6.4%. For the same molecule, the viability, T/C [20] was 5.68%, the viability, T/C [21] was 5.11% and the viability, T/C [22] was 3.75%. The viability, T/C (second compound 3.16 µM, first compound 0.00316 µM) was 101%, the viability, T/C (second compound 3.16 µM, first compound 0.01 µM) was 66.7% and the viability, T/C [25] was 5.97%. The viability, T/C [26] was 5.07%, the viability, T/C [27] was 5.91% and the viability, T/C [28] was 4.97%. For the same molecule, the viability, T/C (second compound 10 µM, first compound 0.00316 µM) was 113%, the viability, T/C (second compound 10 µM, first compound 0.01 µM) was 56.4% and the viability, T/C [31] was 5.54%. For the same molecule, the viability, T/C [32] was 5.59%, the viability, T/C [33] was 5.26% and the viability, T/C [34] was 4.7%.
